From patent US12673946B2, “Pyrimidin-4(3H)-one derivatives as TRPV4 antagonists” (RaQualia Pharma Inc., priority 2020, dated 2026)

Target: T1, human TRPV4 (Homo sapiens, UniProt Q9HBA0)
T1 construct: host or cells: tetracycline-inducible Flp-In T-REx 293 cells
Experiment: Hypotonicity-induced Ca2+ influx (Fluo-4, FDSS)
Format: cell-based
Protocol: Hypotonicity-Induced Ca^2+ Influx
TRPV4 channel activation/opening results in an influx of Ca^2+ (Liedtke, W. et al., 2000 (NPL 1)). The resulting changes in intracellular calcium are monitored using a Ca^2+ sensitive fluorescent dye Fluo-4 (Invitrogen). Dye loaded cells are treated with the test compounds for 5 minutes prior to the addition of a hypotonic solution and the inhibition of the hypotonicity-induced activation is recorded.
Forty microL of tetracycline-inducible Flp-In T-REx 293 cells (Invitrogen) stably expressing human TRPV4 are seeded onto the poly-D-lysine coated 384-well plate (Corning) at a density of 10,000 cells per well. The following day, TRPV4 expression is induced by adding 0.5 microg/mL tetracycline for 20-24 hours. On the day of the experiment, the media is removed and replaced with 40 microL of dye loading buffer [1 microM Fluo-4 AM (Invitrogen), 0.01% Pluronic F-127, and 20 mM HEPES in Hanks' balanced salt solutions (HBSS; Invitrogen)] and then the cells are incubated for 60 minutes at 25° C. Dye is then removed and replaced with 20 microL of assay buffer (20 mM HEPES in HBSS). Five minutes prior to the fluorescence measurement, 10 microL of test compound is added to the cells. Using the FDSS instrument (Hamamatsu Photonics), 30 microL of hypotonic solution (90 mM D-mannitol and 1.26 mM CaCl2 in ultrapure water) is added 30 seconds after the start of measurement. The calcium flux signal is recorded for a total of 4.5 minutes.

[1] = Flp-In T-REx 293 cells expressing human TRPV4, examples listed under heading 'Human IC50<50 nM'
[2] = Flp-In T-REx 293 cells stably expressing human TRPV4, compounds listed by potency bin (<10 nM Tables 96-1/96-2, <3 nM Table 97)

T1 sequence (Q9HBA0 whole entry): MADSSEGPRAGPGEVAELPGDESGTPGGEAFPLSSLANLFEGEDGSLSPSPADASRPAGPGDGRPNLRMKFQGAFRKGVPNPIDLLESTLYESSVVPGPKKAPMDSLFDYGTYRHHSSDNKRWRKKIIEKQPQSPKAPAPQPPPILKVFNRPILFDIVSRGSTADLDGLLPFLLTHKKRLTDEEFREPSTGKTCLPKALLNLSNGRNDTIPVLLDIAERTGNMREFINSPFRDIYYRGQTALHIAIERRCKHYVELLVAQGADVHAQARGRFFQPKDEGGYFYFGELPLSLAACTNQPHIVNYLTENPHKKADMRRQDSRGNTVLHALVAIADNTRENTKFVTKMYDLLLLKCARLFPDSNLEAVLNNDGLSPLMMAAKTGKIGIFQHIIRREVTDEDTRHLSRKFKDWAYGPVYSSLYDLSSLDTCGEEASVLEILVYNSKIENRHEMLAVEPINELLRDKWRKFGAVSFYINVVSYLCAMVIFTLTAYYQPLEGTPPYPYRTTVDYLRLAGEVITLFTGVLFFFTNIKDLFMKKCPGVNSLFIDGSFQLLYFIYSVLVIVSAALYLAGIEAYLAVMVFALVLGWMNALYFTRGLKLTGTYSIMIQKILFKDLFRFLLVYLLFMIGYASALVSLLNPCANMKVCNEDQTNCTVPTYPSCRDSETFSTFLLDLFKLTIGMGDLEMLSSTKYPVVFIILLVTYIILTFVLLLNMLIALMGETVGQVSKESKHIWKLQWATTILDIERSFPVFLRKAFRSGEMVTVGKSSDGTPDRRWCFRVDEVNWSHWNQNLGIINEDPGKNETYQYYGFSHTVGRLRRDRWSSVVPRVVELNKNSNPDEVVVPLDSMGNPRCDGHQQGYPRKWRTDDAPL

With O=C([C@H](O)c1cccc(C(F)(F)F)c1)N1CCCc2nc(C3(c4cccc(-c5cncs5)c4)CC3)[nH]c(=O)c2C1 [42-25] the IC50 [1] was < 50 nM and the IC50 [2] was < 10 nM.

N#Cc1cccc(-c2cccc(C3(c4nc5c(c(=O)[nH]4)CN(C(=O)[C@H](O)c4cccc(C(F)(F)F)c4)CCC5)CC3)c2)c1 [42-5] was tested, and the IC50 [1] was < 50 nM and the IC50 [2] was < 3 nM.

For O=C([C@H](O)c1cccc(-c2coc3ccccc23)c1)N1CCCc2nc(C3(c4cccc(C5CCCCC5)c4)CC3)[nH]c(=O)c2C1 [52-7], the IC50 [1] was < 50 nM and the IC50 [2] was < 10 nM.

O=C(Cc1cccc(-c2cccc(C(F)(F)F)c2)c1)N1CCCc2nc(C3(c4cncc(-c5ccccc5)c4)CC3)[nH]c(=O)c2C1 [19-14] was tested, and the IC50 [1] was < 50 nM and the IC50 [2] was < 10 nM.

CCOc1ccc(-c2cccc(C(O)C(=O)N3CCc4nc(C5(c6ccccc6)CC5)[nH]c(=O)c4C3)c2)cc1 (centres unmarked) [44-37] was tested, and the IC50 [1] was < 50 nM.

O=C([C@H](O)c1cccc(C(F)(F)F)c1)N1CCCc2nc(C3(c4cccc(-c5cccc(F)c5)c4)CC3)[nH]c(=O)c2C1 [42-58] was tested, and the IC50 [1] was < 50 nM and the IC50 [2] was < 10 nM.

With O=C([C@H](O)c1cccc(C(F)(F)F)c1)N1CCCc2nc(C3(c4cccc(-c5cnsc5)c4)CC3)[nH]c(=O)c2C1 [42-1] the IC50 [1] was < 50 nM and the IC50 [2] was < 3 nM.

CC(C)c1cncc(C2(c3nc4c(c(=O)[nH]3)CN(C(=O)C(F)(F)c3cccc(Cl)c3)CC4)CC2)c1 [22-10] was tested, and the IC50 [1] was < 50 nM.

O=C([C@H](O)c1cccc(-c2cccc(Cl)c2)c1)N1CCCc2nc(C3(c4cncc(C5CCCCC5)c4)CC3)[nH]c(=O)c2C1 [55-13] was tested, and the IC50 [1] was < 50 nM and the IC50 [2] was < 10 nM.

For O=C(Cc1cccc(Oc2ccccc2)c1)N1CCCc2nc(C3(c4ccccc4)CC3)[nH]c(=O)c2C1 [17-144], the IC50 [1] was < 50 nM.

With O=C(C(O)c1cccc(-c2ccccc2F)c1)N1CCc2nc(C3(c4ccccc4)CC3)[nH]c(=O)c2C1 (centres unmarked) [44-43] the IC50 [1] was < 50 nM.

O=C([C@H](O)c1cccc(-c2ccc(OCc3ccccc3)cc2)c1)N1CCc2nc(C3(c4ccccc4)CC3)[nH]c(=O)c2C1 [44-107] was tested, and the IC50 [1] was < 50 nM and the IC50 [2] was < 10 nM.

O=C(C(O)c1cccc(-c2cccc(OC(F)(F)F)c2)c1)N1CCCc2nc(C3(c4cccc(F)c4)CC3)[nH]c(=O)c2C1 (centres unmarked) [17-15] was tested, and the IC50 [1] was < 50 nM and the IC50 [2] was < 10 nM.

For O=C([C@H](O)c1cccc(C(F)(F)F)c1)N1CCc2nc(C3(c4cccc(-c5cnsc5)c4)CC3)[nH]c(=O)c2C1 [37-3], the IC50 [1] was < 50 nM and the IC50 [2] was < 3 nM.

For O=C([C@H](O)c1cccc(-c2cccc(Cl)c2Cl)c1)N1CCCc2nc(C3(c4ccccc4)CC3)[nH]c(=O)c2C1 [49-42], the IC50 [1] was < 50 nM and the IC50 [2] was < 10 nM.

With O=C([C@H](O)c1cccc(-c2cncc(C(F)(F)F)c2)c1)N1CCc2nc(C3(c4ccccc4)CC3)[nH]c(=O)c2C1 [44-92] the IC50 [1] was < 50 nM.

For O=C([C@H](O)c1cccc(C(F)(F)F)c1)N1CCCc2nc(C3(c4cc(C5CCCCC5)cs4)CC3)[nH]c(=O)c2C1 [18-4], the IC50 [1] was < 50 nM and the IC50 [2] was < 10 nM.

For O=C([C@H](O)c1cccc(C(F)(F)F)c1)N1CCCc2nc(C3(c4cc(CCC5CCOCC5)cs4)CC3)[nH]c(=O)c2C1 [30-6], the IC50 [1] was < 50 nM and the IC50 [2] was < 10 nM.

With O=C([C@H](O)c1cccc(-c2cccc(OC(F)(F)F)c2)c1)N1CCCc2nc(C3(c4cc(C5CCCCC5)cs4)CC3)[nH]c(=O)c2C1 [54-11] the IC50 [1] was < 50 nM and the IC50 [2] was < 10 nM.

In the case of O=C([C@H](O)c1cccc(-c2cc(F)cc(Cl)c2)c1)N1CCc2nc(C3(c4ccccc4)CC3)[nH]c(=O)c2C1 [44-77], the IC50 [1] is reported as < 50 nM and the IC50 [2] is reported as < 10 nM.

With O=C([C@H](O)c1cccc(-c2cccc(F)c2)c1)N1CCCc2nc(C3(c4ccccc4)CC3)[nH]c(=O)c2C1 [49-12] the IC50 [1] was < 50 nM and the IC50 [2] was < 10 nM.

For CC(C)c1cccc(C2(c3nc4c(c(=O)[nH]3)CN(C(=O)C(O)c3cccc(C(C)(C)C)c3)CC4)CC2)c1 (centres unmarked) [14-107], the IC50 [1] was < 50 nM and the IC50 [2] was < 10 nM.

O=C([C@H](O)c1cccc(Cl)c1)N1CCc2nc(C3(c4cc(Cl)cs4)CC3)[nH]c(=O)c2C1 [15-14] was tested, and the IC50 [1] was < 50 nM.

With O=C([C@H](O)c1cccc(-c2cccc(OCc3ccccc3)c2)c1)N1CCc2nc(C3(c4ccccc4)CC3)[nH]c(=O)c2C1 [44-93] the IC50 [1] was < 50 nM and the IC50 [2] was < 10 nM.

In the case of O=C([C@H](O)c1cccc(Cl)c1)N1CCCc2nc(C3(c4cc(-c5cnsc5)cs4)CC3)[nH]c(=O)c2C1 [39-2], the IC50 [1] is reported as < 50 nM and the IC50 [2] is reported as < 10 nM.

In the case of Cn1nccc1-c1cccc(C2(c3nc4c(c(=O)[nH]3)CN(C(=O)[C@H](O)c3cccc(C(F)(F)F)c3)CCC4)CC2)c1 [42-26], the IC50 [1] is reported as < 50 nM and the IC50 [2] is reported as < 10 nM.

In the case of O=C(Cc1cccc(C(F)(F)F)c1F)N1CCCc2nc(C3(c4ccccc4)CC3)[nH]c(=O)c2C1 [17-11], the IC50 [1] is reported as < 50 nM and the IC50 [2] is reported as < 10 nM.

For O=C([C@H](O)c1cccc(Cl)c1)N1CCCc2nc(C3(c4cccc(-c5cc6ccccc6s5)c4)CC3)[nH]c(=O)c2C1 [40-18], the IC50 [1] was < 50 nM and the IC50 [2] was < 10 nM.

For O=C([C@H](O)c1cccc(C(F)(F)F)c1)N1CCCc2nc(C3(c4cc(-c5cccnc5)cs4)CC3)[nH]c(=O)c2C1 [41-2], the IC50 [1] was < 50 nM.

In the case of CC(C)c1csc(C2(c3nc4c(c(=O)[nH]3)CN(C(=O)[C@H](O)c3cccc(C(F)(F)F)c3)CCC4)CC2)c1 [18-1], the IC50 [1] is reported as < 50 nM and the IC50 [2] is reported as < 3 nM.

With CC(C)(C)c1cccc(-c2cccc([C@@H](O)C(=O)N3CCc4nc(C5(c6cccc(Cl)c6)CC5)[nH]c(=O)c4C3)c2)c1 [45-2] the IC50 [1] was < 50 nM and the IC50 [2] was < 10 nM.

O=C([C@H](O)c1cccc(C(F)(F)F)c1)N1CCCc2nc(C3(c4cc(-c5cnsc5)cs4)CC3)[nH]c(=O)c2C1 [41-3] was tested, and the IC50 [1] was < 50 nM and the IC50 [2] was < 10 nM.

O=C([C@H](O)c1cccc(-c2ccc3c(c2)OC(F)(F)O3)c1)N1CCCc2nc(C3(c4ccccc4)CC3)[nH]c(=O)c2C1 [49-39] was tested, and the IC50 [1] was < 50 nM and the IC50 [2] was < 3 nM.

With CC(C)c1cccc(C(O)C(=O)N2CCc3nc(C4(c5cccc(Cl)c5)CC4)[nH]c(=O)c3C2)c1 (centres unmarked) [14-16] the IC50 [1] was < 50 nM.

In the case of COc1cccc(C2(c3nc4c(c(=O)[nH]3)CN(C(=O)[C@H](O)c3cccc(C(F)(F)F)c3)CCC4)CC2)c1 [17-54], the IC50 [1] is reported as < 50 nM.

O=C(C(O)c1cccc(C(F)(F)F)c1F)N1CCc2nc(C3(c4cncc(-c5ccccc5)c4)CC3)[nH]c(=O)c2C1 (centres unmarked) [16-2] was tested, and the IC50 [1] was < 50 nM and the IC50 [2] was < 10 nM.

For O=C([C@H](O)c1cccc(-c2ccc(Cl)c(C(F)(F)F)c2)c1)N1CCCc2nc(C3(c4ccccc4)CC3)[nH]c(=O)c2C1 [49-37], the IC50 [1] was < 50 nM and the IC50 [2] was < 10 nM.

For C=C(C)c1cccc(C2(c3nc4c(c(=O)[nH]3)CN(C(=O)[C@H](O)c3cccc(Cl)c3)CCC4)CC2)c1 [40-4, (R)-6-(2-(3-chlorophenyl)-2-hydroxyacetyl)-2-(1-(3-(prop-1-en-2-yl)phenyl)cyclopropyl)-3,5,6,7,8,9-hexahydro-4H-pyrimido[5,4-c]azepin-4-one], the IC50 [1] was < 50 nM and the IC50 [2] was < 3 nM.

For O=C(Cc1cccc(-c2cccc(Cl)c2)c1)N1CCc2nc(C3(c4cccc(Cl)c4)CC3)[nH]c(=O)c2C1 [14-114], the IC50 [1] was < 50 nM.

O=C(C(O)c1cccc(-c2cnc3ccccc3c2)c1)N1CCCc2nc(C3(c4cccc(Cl)c4)CC3)[nH]c(=O)c2C1 (centres unmarked) [17-19] was tested, and the IC50 [1] was < 50 nM and the IC50 [2] was < 10 nM.

In the case of CC(C)(C)c1cccc(CC(=O)N2CCCc3nc(C4(c5cccc(Cl)c5)CC4)[nH]c(=O)c3C2)c1 [17-141], the IC50 [1] is reported as < 50 nM and the IC50 [2] is reported as < 10 nM.

In the case of O=C(C(O)c1cccc(SC(F)(F)F)c1)N1CCc2nc(C3(c4cccs4)CC3)[nH]c(=O)c2C1 (centres unmarked) [15-12], the IC50 [1] is reported as < 50 nM.

CC(C)c1csc(C2(c3nc4c(c(=O)[nH]3)CN(C(=O)C(O)c3cccc(-c5cccc(C(F)(F)F)c5)c3)CCC4)CC2)c1 (centres unmarked) [18-21] was tested, and the IC50 [1] was < 50 nM and the IC50 [2] was < 10 nM.

For O=C(Cc1cccc(-c2ccc(OC(F)(F)F)cc2)c1)N1CCc2nc(C3(c4cccc(Cl)c4)CC3)[nH]c(=O)c2C1 [14-118], the IC50 [1] was < 50 nM.

In the case of O=C([C@H](O)c1cccc(F)c1F)N1CCc2nc(C3(c4cccc(Cl)c4)CC3)[nH]c(=O)c2C1 [3-48], the IC50 [1] is reported as < 50 nM.

O=C([C@H](O)c1cccc(C(F)(F)F)c1)N1CCCc2nc(C3(c4cccc(-c5cnn(C(F)F)c5)c4)CC3)[nH]c(=O)c2C1 [42-21] was tested, and the IC50 [1] was < 50 nM and the IC50 [2] was < 10 nM.

With CC(C)c1csc(C2(c3nc4c(c(=O)[nH]3)CN(C(=O)C(O)c3cccc(Cl)c3F)CCC4)CC2)c1 (centres unmarked) [18-17] the IC50 [1] was < 50 nM and the IC50 [2] was < 3 nM.

With CC(C)c1cncc(C2(c3nc4c(c(=O)[nH]3)CN(C(=O)[C@H](O)c3cccc(C(F)(F)F)c3)CC4)CC2)c1 [28-3] the IC50 [1] was < 50 nM and the IC50 [2] was < 10 nM.

CC(C)c1cccc(C2(c3nc4c(c(=O)[nH]3)CN(C(=O)[C@H](O)c3cccc(Cl)c3)CCC4)CC2)c1 [29-1] was tested, and the IC50 [1] was < 50 nM and the IC50 [2] was < 10 nM.

For O=C(C(O)c1cccc(Cl)c1F)N1CCCc2nc(C3(c4cccc(Cl)c4)CC3)[nH]c(=O)c2C1 (centres unmarked) [17-7], the IC50 [1] was < 50 nM and the IC50 [2] was < 3 nM.

For O=C([C@H](O)c1cccc(-c2cccc(OC(F)(F)F)c2)c1)N1CCCc2nc(C3(c4cncc(C5CCCCC5)c4)CC3)[nH]c(=O)c2C1 [55-10], the IC50 [1] was < 50 nM and the IC50 [2] was < 10 nM.
